From patent US5316919A, “Method of producing 2 KD to 10 KD peptides having no L-methionine residue” (priority 1992, dated 1994)
Where no end group is shown, it is not given here.

Tested on: male ICR mice
Experiment: Effects on the blood pressure (caudal vein blood pressure, noninvasive sphygmomanometer) after intravenous injection
Assay type: in vivo
Settings: 40 μg/kg by injection into the caudal vein, male ICR mice of 5 weeks of age
Method: Two of the compounds of the invention were each administered to male ICR mice of 5 weeks of age by injection into the caudal vein at a dose of 40 μg/kg. […]
In addition, the activity was of long duration. The peptides of the invention have therapeutic utility.

Substance: H-HSDAVFTDNYTRLRKQLAVKKYLNSILNGP-OH [Peptide of Reference Example 3, H-His-Ser-Asp-Ala-Val-Phe-Thr-Asp-Asn-Tyr-Thr-Arg-Leu-Arg-Lys-Gln-Leu-Ala- Val-Lys-Lys-Tyr-Leu-Asn-Ser-Ile-Leu-Asn-Gly-Pro-OH]
- caudal vein blood pressure relative to physiological saline taken as 100% (5 min after administration): 58.9%
- caudal vein blood pressure relative to physiological saline taken as 100% (10 min after administration): 74.1%
- caudal vein blood pressure relative to physiological saline taken as 100% (15 min after administration): 94.3%
- caudal vein blood pressure relative to physiological saline taken as 100% (20 min after administration): 105.5%

Substance: H-HSDAVFTDNYTRLRKQLAVKKYLNSILNGPEA-OH [Peptide of Reference Example 1, H-His-Ser-Asp-Ala-Val-Phe-Thr-Asp-Asn-Tyr-Thr-Arg-Leu-Arg-Lys-Gln-Leu-Ala- Val-Lys-Lys-Tyr-Leu-Asn-Ser-Ile-Leu-Asn-Gly-Pro-Glu-Ala-OH]
- caudal vein blood pressure relative to physiological saline taken as 100% (5 min after administration): 71.1%
- caudal vein blood pressure relative to physiological saline taken as 100% (10 min after administration): 66.4%
- caudal vein blood pressure relative to physiological saline taken as 100% (15 min after administration): 74.9%
- caudal vein blood pressure relative to physiological saline taken as 100% (20 min after administration): 77.9%

Substance: vasoactive intestinal polypeptide (HSDAVFTDNYTRLRKQMAVKKYLNSILN; ends and bridges not checked; UniProt P01282 125-152, looked up) [Naturally occurring VIP, reference compound]
- caudal vein blood pressure relative to physiological saline taken as 100% (5 min after administration): 83.3%
- caudal vein blood pressure relative to physiological saline taken as 100% (10 min after administration): 97.2%
- caudal vein blood pressure relative to physiological saline taken as 100% (15 min after administration): 95.9%
- caudal vein blood pressure relative to physiological saline taken as 100% (20 min after administration): 102.8%
